What was measured:
KRAS^G12C = KRAS^G12C (Homo sapiens, UniProt P01116, C118A/G12C); test: Coupled Nucleotide Exchange Assay; assay type: biochemical; settings: GDP-bound KRAS (aa 1-169) G12C/C118A; 2 h compound pre-incubation; SOS-mediated exchange, 30 min; cRAF binding (AlphaLISA)
How it was run: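 GDP-bound His-tagged KRAS aa 1-169 (G12C/C118A) pre-incubated 2 h with compound in 25 mM HEPES pH 7.4, 10 mM MgCl2, 0.01% Triton X-100 (±0.1% BSA), then SOS (aa 564-1049) plus GTP added for 30 min. GST-cRAF RBD binding read by AlphaLISA; DMSO-normalized, 4-parameter fit gives IC50.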

MIA PaCa-2 cells = test: Cell Viability Assay, MIA PaCa-2; assay type: cell-based; settings: Homo sapiens, MIA PaCa-2, 72 h, human pancreatic carcinoma, CellTiter-Glo
Description: (§1) MIA PaCa-2 (human pancreatic carcinoma; ATCC CRL-1420) or A549 (human lung carcinoma; ATCC CCL-185) cells were cultured in RPMI 1640 medium containing 10% fetal bovine serum and 1×penicillin/streptomycin/L-glutamine. Cells were seeded in 384-well plates at a density of 1.67E+04 cells/mL and incubated at 37° C., 5% CO2, overnight. Serially-diluted compound or DMSO was added to the cells, and plates were incubated at 37° C., 5% CO2 for 72 h. Cell viability was measured using a CellTiter-Glo® Luminescent Cell Viability Assay kit (Promega) according to the manufacturer's protocol. The luminescence signal of treated samples was normalized to DMSO control, and data were analyzed using a 4-parameter logistic model to calculate IC50 values.
(§2) The following data (Table 3) categorizes the IC50 of each compound for inhibiting enzymatic activity of KRAS^G12C in the indicated cells.

A549 cells = test: Cell Viability Assay, A549; assay type: cell-based; settings: A549; human lung carcinoma; 72 h; CellTiter-Glo
Description: as §1, §2

Chain of KRAS^G12C (P01116 1-169 isoform P01116-2 G12C/C118A): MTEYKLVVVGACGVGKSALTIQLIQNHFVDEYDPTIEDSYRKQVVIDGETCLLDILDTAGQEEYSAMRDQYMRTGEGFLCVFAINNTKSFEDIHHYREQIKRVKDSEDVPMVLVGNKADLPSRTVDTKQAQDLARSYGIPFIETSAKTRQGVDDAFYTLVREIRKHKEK

IC50 (KRAS^G12C)	IC50 (MIA PaCa-2 cells)	IC50 (A549 cells)	Compound
89 nM	387 nM	> 5000 nM	C=CC(=O)N1CCN([C@@H]2CN(c3cc(N4CC[C@]5(C[C@H]4C)OCCn4ncc(C)c45)nc(C(F)F)n3)[C@@H]2C)CC1 [Compound 3-078, 1-(4-((2R,3R)-1-(2-(difluoromethyl)-6-((2R,4R)-2,3′-dimethyl-6′,7′-dihydro-1H-spiro[piperidine-4,4′-pyrazolo[5.1-c][1,4]oxazin]-1-yl)-4-pyrimidinyl)-2-methyl-3-azetidinyl)-1-piperazinyl)-2-propen-1-one]
81 nM	180 nM	> 5000 nM	C=CC(=O)N1CCN([C@@H]2CN(c3cc(N4CCC5(CC4)OCc4nccc(C)c45)nc(C(F)(F)F)n3)[C@@H]2C)CC1 [Compound 3-079, 1-(4-((2R,3R)-2-methyl-1-(6-(4-methyl-1′H,7H-spiro[furo[3,4-b]pyridine-5,4′-piperidin]-1′-yl)-2-(trifluoromethyl)-4-pyrimidinyl)-3-azetidinyl)-1-piperazinyl)-2-propen-1-one]
63 nM	131 nM	> 5000 nM	C=CC(=O)N1CCN([C@@H]2CN(c3cc(N4CCC5(CC4)OCC(CO)n4ncc(C)c45)nc(C(F)(F)F)n3)[C@@H]2C)CC1 (stereo partly drawn) [Compound 3-081, 1-(4-((2R,3R)-1-(6-(7′-(hydroxymethyl)-3′-methyl-6′,7′-dihydrospiro[piperidine-4,4′-pyrazolo[5,1-c][1.4]oxazin]-1-yl)-2-(trifluoromethyl)pyrimidin-4-yl)-2-methylazetidin-3-yl)piperazin-1-yl)prop-2-en-1-one]
69 nM	145 nM	> 5000 nM	C=CC(=O)N1CCN([C@@H]2CN(c3cc(N4CCC5(CC4)OCC(COC)n4ncc(C)c45)nc(C(F)(F)F)n3)[C@@H]2C)CC1 (stereo partly drawn) [Compound 3-082, 1-(4-((2R,3R)-1-(6-(7′-(methoxymethyl)-3′-methyl-6′,7′-dihydrospiro[piperidine-4,4′-pyrazolo[5,1-c][1,4]oxazin]-1-yl)-2-(trifluoromethyl)pyrimidin-4-yl)-2-methylazetidin-3-yl)piperazin-1-yl)prop-2-en-1-one]
75 nM	171 nM	> 5000 nM	C=CC(=O)N1CCN([C@@H]2CN(c3cc(N4CCC5(CC4)OCC(CF)n4ncc(C)c45)nc(C(F)(F)F)n3)[C@@H]2C)CC1 (stereo partly drawn) [Compound 3-083, 1-(4-((2R,3R)-1-(6-(7′-(fluoromethyl)-3′-methyl-6′,7′-dihydrospiro[piperidine-4,4′-pyrazolo[5,1-c][1,4]oxazin]-1-yl)-2-(trifluoromethyl)pyrimidin-4-yl)-2-methylazetidin-3-yl)piperazin-1-yl)prop-2-en-1-one]
176 nM	172 nM	> 5000 nM	C=CC(=O)N1CCN([C@@H]2CN(c3cc(N4CC[C@]5(C[C@H]4C)OCC(CF)n4ncc(C)c45)nc(C(F)F)n3)[C@@H]2C)CC1 (stereo partly drawn) [Compound 3-084, 1-(4-((2R,3R)-1-(2-(difluoromethyl)-6-((2R,4R)-7′-(fluoromethyl)-2,3′-dimethyl-6′,7′-dihydrospiro[piperidine-4,4′-pyrazolo[5,1-c][1,4]oxazin]-1-yl)pyrimidin-4-yl)-2-methylazetidin-3-yl)piperazin-1-yl)prop-2-en-1-one]
107 nM	271 nM	> 5000 nM	C=CC(=O)N1CCN([C@@H]2CN(c3cc(N4CCC5(CC4)c4c(C)ccnc4C4(COC4)C5F)nc(C(F)(F)F)n3)[C@@H]2C)CC1 (stereo partly drawn) [Compound 3-093, 1-(4-((2R,3R)-1-(6-(6′-fluoro-4′-methyl-1″H-dispiro[oxetane-3,7′-cyclopenta[b]pyridine-5′,4″- piperidin]-1″-yl)-2-(trifluoromethyl)-4-pyrimidinyl)-2-methyl-3-azetidinyl)-1-piperazinyl)-2-propen-1-one]
52 nM	175 nM	> 5000 nM	C=CC(=O)N1CCN([C@@H]2CN(c3cc(N4CCC5(CC4)OCCc4nccc(C)c45)nc(C(F)(F)F)n3)[C@@H]2C)CC1 [Compound 3-094, 1-(4-((2R,3R)-2-methyl-1-(6-(4′-methyl-7′,8′-dihydro-1H-spiro[piperidine-4,5′-pyrano[4.3-b]pyridin]-1-yl)-2-(trifluoromethyl)-4-pyrimidinyl)-3-azetidinyl)-1-piperazinyl)-2-propen-1-one]
31 nM	159 nM	> 5000 nM	C=CC(=O)N1CCN([C@@H]2CN(c3cc(N4CCC5(CC4)OC(C)(C)c4nccc(C)c45)nc(C(F)(F)F)n3)[C@@H]2C)CC1 [Compound 3-095]
69 nM	267 nM	> 5000 nM	C=CC(=O)N1CCN([C@@H]2CN(c3cc(N4CCC5(CC4)OC(C)(C)c4nccc(C)c45)nc(C(F)F)n3)[C@@H]2C)CC1 [Compound 3-096, 1-(4-((2R,3R)-1-(2-(difluoromethyl)-6-(4,7,7-trimethyl-1′H,7H-spiro[furo[3,4-b]pyridine-5,4′-piperidin]-1′-yl)-4-pyrimidinyl)-2-methyl-3-azetidinyl)-1-piperazinyl)-2-propen-1-one]
85 nM	226 nM	> 5000 nM	C=CC(=O)N1CCN([C@@H]2CN(c3cc(N4CCC5(CC4)OC[C@@H](COC)n4ncc(C)c45)nc(C(F)(F)F)n3)[C@@H]2C)CC1 [Compound 3-097, 1-(4-((2R,3R)-1-(6-((7′R)-7′-(methoxymethyl)-3′-methyl-6′,7′-dihydro-1H-spiro[piperidine-4,4′-pyrazolo[5,1-c][1.4]oxazin]-1-yl)-2-(trifluoromethyl)-4-pyrimidinyl)-2-methyl-3-azetidinyl)-1-piperazinyl)-2-propen-1-one]
131 nM	224 nM	> 5000 nM	C=CC(=O)N1CCN([C@@H]2CN(c3cc(N4CCC5(CC4)OC[C@H](COC)n4ncc(C)c45)nc(C(F)(F)F)n3)[C@@H]2C)CC1 [Compound 3-098]
41 nM	165 nM	> 5000 nM	C=CC(=O)N1CCN([C@@H]2CN(c3cc(N4CCC5(CC4)C(=O)C4(COC4)c4nccc(C)c45)nc(C(F)(F)F)n3)[C@@H]2C)CC1 [Compound 3-099, 4′-methyl-1″-(6-((2R,3R)-2-methyl-3-(4-(2-propenoyl)-1-piperazinyl)-1-azetidinyl)-2-(trifluoromethyl)-4-pyrimidinyl)dispiro[oxetane-3,7′-cyclopenta[b]pyridine-5′,4″-piperidin]-6′-one]
40 nM	155 nM	> 5000 nM	C=CC(=O)N1CCN([C@@H]2CN(c3cc(N4CCC5(CC4)OC[C@@H](C)n4ncc(C)c45)nc(C(F)(F)F)n3)[C@@H]2C)CC1 [Compound 3-100, 1-(4-((2R,3R)-1-(6-((7′R)-3′,7′-dimethyl-6′,7′-dihydro-1H-spiro[piperidine-4,4′-pyrazolo[5,1-c][1,4]oxazin]-1-yl)-2-(trifluoromethyl)-4-pyrimidinyl)-2-methyl-3-azetidinyl)-1-piperazinyl)-2-propen-1-one]
70 nM	259 nM	> 5000 nM	C=CC(=O)N1CCN([C@@H]2CN(c3cc(N4CCC5(CC4)OC[C@H](C)n4ncc(C)c45)nc(C(F)(F)F)n3)[C@@H]2C)CC1 [Compound 3-101, 1-(4-((2R,3R)-1-(6-((7′S)-3′,7′-dimethyl-6′,7′-dihydro-1H-spiro[piperidine-4,4′-pyrazolo[5.1-c][1,4]oxazin]-1-yl)-2-(trifluoromethyl)-4-pyrimidinyl)-2-methyl-3-azetidinyl)-1-piperazinyl)-2-propen-1-one]
